Common to all, as to assay: Kinase selectivity, radiometric [Km ATP] KinaseProfiler
Holding throughout (format): biochemical

Experiment [1] has as its target T1, SAPK2a(T106M) (Homo sapiens, UniProt Q16539, T106M).
T1 construct: purchased Eurofins (KinaseProfiler service)
The procedure: (§1) We selected those kinases with the greatest potential for interaction based on structural homology, as indicated by the ChemPartner panel.
(§2) Figure 7 Kinase selectivity for compound 36. Data are presented as percent of kinases’ activity in the presence of 1 μM of compound 36. Kinases’ panel (CMGC group, human enzymes): CDK1/cyclinB, CDK2/cyclinA, CDK4/cyclinD3, CDK6/cyclinD3, CDK7/cyclinH/MAT1, CDK9/cyclinT1, DYRK1A, DYRK1B, GSK-3α, GSK-3β, JNK2α2, JNK3, MAPK1, MAPK2, SAPK2a(T106M), SAPK2b, SAPK3.
(§3) Selectivity studies were performed at Eurofins in Kinase Enzymatic Radiometric [Km ATP]
(§4) Kinase Profiler Lead Hunter Assay. The percentage of enzymatic activity was measured at the
(§5) concentration of 1 µM of compound 36 in duplicate for 17 selected kinases.
(§6) Table S12. Inhibitory activity of compound 36 against selected kinases.
(§7) *Where n = 2, the value reported here is actually range / √ 2.

For experiment [2], the target named is T2, SAPK2b (Homo sapiens, UniProt Q15759).
T2 construct: purchased Eurofins (KinaseProfiler service)
The procedure: as §1, §2, §3, §4, §5, §6, §7

Experiment [3] has as its target T3, SAPK3 (Homo sapiens, UniProt P53778).
T3 construct: purchased Eurofins (KinaseProfiler service)
The procedure:
as §1, §2, §3, §4, §5, §6, §7

For experiment [4], the target named is T4, DYRK1A (Homo sapiens, UniProt Q13627).
T4 construct: purchased Eurofins (KinaseProfiler service)
The conditions noted are these: duplicate. The procedure: as §1, §2, §3, §4, §5, §6, §7

The target of experiment [5] is T5, GSK-3α (Homo sapiens, UniProt P49840).
T5 construct: purchased Eurofins (KinaseProfiler service)
The conditions noted are these: duplicate. The procedure: as §1, §2, §3, §4, §5, §6, §7

Experiment [6] deals with T6, CDK6/cyclinD3 (Homo sapiens, UniProt Q00534).
T6 construct: purchased Eurofins (KinaseProfiler service)
The procedure: as §1, §2, §3, §4, §5, §6, §7

Experiment [7] concerns the target T7, JNK3 (Homo sapiens, UniProt P53779).
T7 construct: purchased Eurofins (KinaseProfiler service)
The procedure:
as §1, §2, §3, §4, §5, §6, §7

The target in experiment [8] is T8, MAPK2 (Homo sapiens, UniProt P28482).
T8 construct: purchased Eurofins (KinaseProfiler service)
The procedure:
as §1, §2, §3, §4, §5, §6, §7

Experiment [9] has as its target T9, DYRK1B (Homo sapiens, UniProt Q9Y463).
T9 construct: purchased Eurofins (KinaseProfiler service)
The conditions noted are these: duplicate. The procedure: as §1, §2, §3, §4, §5, §6, §7

The target in experiment [10] is T10, CDK7/cyclinH/MAT1 (Homo sapiens, UniProt P50613).
T10 construct: purchased Eurofins (KinaseProfiler service)
The procedure:
as §1, §2, §3, §4, §5, §6, §7

Experiment [11] addresses T11, CDK2/cyclinA (Homo sapiens, UniProt P24941).
T11 construct: purchased Eurofins (KinaseProfiler service)
The procedure:
as §1, §2, §3, §4, §5, §6, §7

The target of experiment [12] is T12, MAPK1 (Homo sapiens, UniProt P27361).
T12 construct: purchased Eurofins (KinaseProfiler service)
The procedure: as §1, §2, §3, §4, §5, §6, §7

T2 sequence (Q15759 whole entry): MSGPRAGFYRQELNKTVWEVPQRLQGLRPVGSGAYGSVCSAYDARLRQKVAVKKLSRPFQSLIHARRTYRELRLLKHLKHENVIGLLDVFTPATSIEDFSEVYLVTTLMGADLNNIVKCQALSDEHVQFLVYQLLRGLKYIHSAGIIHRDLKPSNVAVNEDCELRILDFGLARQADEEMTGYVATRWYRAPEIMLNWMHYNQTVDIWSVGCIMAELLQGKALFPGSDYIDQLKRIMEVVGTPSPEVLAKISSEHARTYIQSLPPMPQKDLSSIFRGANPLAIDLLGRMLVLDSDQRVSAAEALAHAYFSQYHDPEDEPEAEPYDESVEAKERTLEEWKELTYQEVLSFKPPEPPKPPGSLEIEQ
T12 sequence (P27361 whole entry): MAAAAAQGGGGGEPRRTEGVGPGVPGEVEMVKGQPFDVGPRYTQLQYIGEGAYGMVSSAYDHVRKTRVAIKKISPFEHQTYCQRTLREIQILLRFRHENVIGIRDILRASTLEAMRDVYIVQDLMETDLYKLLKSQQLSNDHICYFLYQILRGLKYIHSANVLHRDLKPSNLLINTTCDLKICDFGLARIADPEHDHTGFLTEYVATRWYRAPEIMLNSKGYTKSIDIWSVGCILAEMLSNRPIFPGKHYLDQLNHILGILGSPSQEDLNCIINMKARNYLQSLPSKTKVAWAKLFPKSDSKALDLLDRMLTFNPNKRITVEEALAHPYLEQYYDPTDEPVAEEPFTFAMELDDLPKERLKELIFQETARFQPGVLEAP
T1 sequence (Q16539 whole entry T106M): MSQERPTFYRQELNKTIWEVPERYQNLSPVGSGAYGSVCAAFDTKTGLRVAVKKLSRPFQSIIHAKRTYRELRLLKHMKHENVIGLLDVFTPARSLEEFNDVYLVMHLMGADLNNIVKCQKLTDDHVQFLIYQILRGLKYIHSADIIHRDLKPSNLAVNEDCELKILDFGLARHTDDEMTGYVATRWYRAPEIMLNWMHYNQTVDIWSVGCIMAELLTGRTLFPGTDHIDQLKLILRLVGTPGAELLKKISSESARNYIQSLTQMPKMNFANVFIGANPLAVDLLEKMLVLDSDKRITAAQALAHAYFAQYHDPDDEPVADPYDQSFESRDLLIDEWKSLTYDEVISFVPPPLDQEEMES
T7 sequence (P53779 whole entry): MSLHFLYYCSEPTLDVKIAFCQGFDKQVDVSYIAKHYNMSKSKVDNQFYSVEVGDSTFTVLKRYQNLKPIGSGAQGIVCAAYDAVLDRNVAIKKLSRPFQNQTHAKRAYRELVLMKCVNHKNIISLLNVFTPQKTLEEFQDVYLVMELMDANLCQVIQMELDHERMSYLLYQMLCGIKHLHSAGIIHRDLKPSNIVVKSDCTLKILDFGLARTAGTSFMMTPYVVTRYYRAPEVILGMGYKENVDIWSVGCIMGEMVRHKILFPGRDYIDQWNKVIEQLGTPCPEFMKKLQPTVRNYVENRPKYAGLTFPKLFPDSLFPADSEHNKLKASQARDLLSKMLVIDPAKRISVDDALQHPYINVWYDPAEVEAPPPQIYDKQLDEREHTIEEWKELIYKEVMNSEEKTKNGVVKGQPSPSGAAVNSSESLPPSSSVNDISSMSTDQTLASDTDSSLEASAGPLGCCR
T10 sequence (P50613 whole entry): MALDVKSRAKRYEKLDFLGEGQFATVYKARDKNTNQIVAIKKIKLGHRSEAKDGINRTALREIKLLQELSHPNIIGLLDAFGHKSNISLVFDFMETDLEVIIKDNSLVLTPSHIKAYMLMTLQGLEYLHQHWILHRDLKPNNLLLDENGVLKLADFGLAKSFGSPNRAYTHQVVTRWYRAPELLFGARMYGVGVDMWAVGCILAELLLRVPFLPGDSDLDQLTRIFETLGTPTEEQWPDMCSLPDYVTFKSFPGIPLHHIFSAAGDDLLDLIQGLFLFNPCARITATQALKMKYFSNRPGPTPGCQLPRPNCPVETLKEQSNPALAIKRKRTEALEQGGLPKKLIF
T10 sequence (P51946 whole entry partner): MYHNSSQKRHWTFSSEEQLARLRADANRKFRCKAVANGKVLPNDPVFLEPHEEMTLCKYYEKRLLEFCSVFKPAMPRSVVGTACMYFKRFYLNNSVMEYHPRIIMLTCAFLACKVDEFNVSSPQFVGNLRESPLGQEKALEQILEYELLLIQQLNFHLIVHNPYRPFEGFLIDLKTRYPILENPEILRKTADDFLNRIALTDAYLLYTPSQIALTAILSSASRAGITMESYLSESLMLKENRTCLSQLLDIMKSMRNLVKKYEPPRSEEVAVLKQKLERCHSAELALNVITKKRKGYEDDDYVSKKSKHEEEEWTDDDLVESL
T10 sequence (P51948 whole entry partner): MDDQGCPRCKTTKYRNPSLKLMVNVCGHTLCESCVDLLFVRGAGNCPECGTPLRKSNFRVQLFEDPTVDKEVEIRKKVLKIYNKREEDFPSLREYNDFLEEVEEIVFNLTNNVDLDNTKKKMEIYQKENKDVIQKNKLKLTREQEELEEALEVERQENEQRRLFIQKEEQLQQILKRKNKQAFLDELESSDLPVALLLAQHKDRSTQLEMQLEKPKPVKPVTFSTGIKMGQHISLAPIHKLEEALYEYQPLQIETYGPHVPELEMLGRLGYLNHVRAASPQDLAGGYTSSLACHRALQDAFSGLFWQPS
T8 sequence (P28482 whole entry): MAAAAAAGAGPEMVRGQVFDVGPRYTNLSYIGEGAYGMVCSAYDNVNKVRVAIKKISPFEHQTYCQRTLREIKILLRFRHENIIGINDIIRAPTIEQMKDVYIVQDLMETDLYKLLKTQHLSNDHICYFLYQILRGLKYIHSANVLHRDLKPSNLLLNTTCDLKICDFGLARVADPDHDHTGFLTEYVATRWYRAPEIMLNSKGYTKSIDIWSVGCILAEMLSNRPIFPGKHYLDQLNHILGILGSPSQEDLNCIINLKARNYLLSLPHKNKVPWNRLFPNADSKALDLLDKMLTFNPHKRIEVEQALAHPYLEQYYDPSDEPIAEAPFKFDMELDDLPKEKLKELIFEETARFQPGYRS
T3 sequence (P53778 whole entry): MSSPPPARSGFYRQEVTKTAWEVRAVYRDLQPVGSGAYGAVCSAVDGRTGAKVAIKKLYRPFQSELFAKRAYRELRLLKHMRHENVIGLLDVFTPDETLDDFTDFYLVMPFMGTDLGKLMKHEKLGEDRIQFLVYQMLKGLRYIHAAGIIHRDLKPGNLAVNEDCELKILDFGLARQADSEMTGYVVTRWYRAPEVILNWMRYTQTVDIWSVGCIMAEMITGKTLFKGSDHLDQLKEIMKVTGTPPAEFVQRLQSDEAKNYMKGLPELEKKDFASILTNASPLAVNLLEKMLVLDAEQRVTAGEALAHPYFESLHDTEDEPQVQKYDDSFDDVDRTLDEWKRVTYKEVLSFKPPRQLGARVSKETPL
T6 sequence (Q00534 whole entry): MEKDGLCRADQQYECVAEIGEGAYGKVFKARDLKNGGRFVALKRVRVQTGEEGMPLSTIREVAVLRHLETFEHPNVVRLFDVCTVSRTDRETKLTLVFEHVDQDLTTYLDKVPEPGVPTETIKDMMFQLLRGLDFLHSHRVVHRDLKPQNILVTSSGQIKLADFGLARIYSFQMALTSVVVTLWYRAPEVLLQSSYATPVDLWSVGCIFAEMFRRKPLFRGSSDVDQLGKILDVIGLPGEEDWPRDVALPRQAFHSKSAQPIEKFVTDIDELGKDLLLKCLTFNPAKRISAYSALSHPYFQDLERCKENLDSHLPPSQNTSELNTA
T6 sequence (P30281 whole entry partner): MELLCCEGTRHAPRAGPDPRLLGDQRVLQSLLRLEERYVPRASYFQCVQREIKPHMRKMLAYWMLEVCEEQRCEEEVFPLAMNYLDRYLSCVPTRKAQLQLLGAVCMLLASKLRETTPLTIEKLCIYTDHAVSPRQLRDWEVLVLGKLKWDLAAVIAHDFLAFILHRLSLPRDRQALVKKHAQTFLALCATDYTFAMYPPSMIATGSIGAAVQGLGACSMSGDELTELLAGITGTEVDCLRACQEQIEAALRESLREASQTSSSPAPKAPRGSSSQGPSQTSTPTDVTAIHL
T9 sequence (Q9Y463 whole entry): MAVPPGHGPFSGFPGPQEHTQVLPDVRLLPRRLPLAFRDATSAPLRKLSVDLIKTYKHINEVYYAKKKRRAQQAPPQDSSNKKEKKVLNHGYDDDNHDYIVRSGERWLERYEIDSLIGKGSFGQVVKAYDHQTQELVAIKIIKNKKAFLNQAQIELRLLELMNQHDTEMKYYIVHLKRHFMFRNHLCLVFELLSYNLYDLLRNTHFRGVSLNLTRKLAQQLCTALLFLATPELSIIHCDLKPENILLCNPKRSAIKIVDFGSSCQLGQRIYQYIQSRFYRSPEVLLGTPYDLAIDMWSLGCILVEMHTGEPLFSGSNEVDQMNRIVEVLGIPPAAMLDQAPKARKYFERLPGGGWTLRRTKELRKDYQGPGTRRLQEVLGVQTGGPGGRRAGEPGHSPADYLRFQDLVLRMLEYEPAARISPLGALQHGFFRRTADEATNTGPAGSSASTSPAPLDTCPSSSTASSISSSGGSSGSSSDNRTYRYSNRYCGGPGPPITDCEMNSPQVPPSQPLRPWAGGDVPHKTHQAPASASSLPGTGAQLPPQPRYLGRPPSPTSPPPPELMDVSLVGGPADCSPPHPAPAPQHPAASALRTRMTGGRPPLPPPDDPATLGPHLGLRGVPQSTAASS

Regarding `O=C(Nc1cc(-c2ccc(-c3ncon3)s2)ccn1)C1CC1` [Compound 36, N-(4-(5-(1,2,4-Oxadiazol-3-yl)thiophen-2-yl)pyridin-2-yl)cyclopropanecarboxamide], the inhibition at 1 µM in experiment [1], in [2], in experiment [3] (read-out: inhibition of SAPK3), in [6], in [7] and in experiment [8] was under 50% in each case. For the same compound, the inhibition (commonly the percentage by which the read-out fell short of the control) at 1 µM was under 50% in [10], 63% in experiment [11] and under 50% in [12]. The “% of enzyme activity at 1μM of 36 ±SD, SAPK2a(T106M)” value in experiment [1] (duplicate) was found to be 95±7%. Besides, in experiment [2] (duplicate), the “% of enzyme activity at 1μM of 36 ±SD, SAPK2b” value stood at 100±2%. Also, the “% of enzyme activity at 1μM of 36 ±SD, SAPK3” value in experiment [3] (1 μM, duplicate) came out at 50±3%. For the same compound, the “% of enzyme activity at 1μM of 36 ±SD, DYRK1A” value in experiment [4] is 11±1%. In addition, in [5], the “% of enzyme activity at 1μM of 36 ±SD, GSK-3α” value is given as 2±1%. Besides, the “% of enzyme activity at 1μM of 36 ±SD, CDK6/cyclinD3” value in experiment [6] (duplicate) amounted to 90±1%. The “% of enzyme activity at 1μM of 36 ±SD, JNK3” value in experiment [7] (duplicate) came out at 73±6%. Also, the “% of enzyme activity at 1μM of 36 ±SD, MAPK2” value in experiment [8] (duplicate) turned out to be 98±6%. In addition, the “% of enzyme activity at 1μM of 36 ±SD, DYRK1B” value in [9] came to 26±6%. The “% of enzyme activity at 1μM of 36 ±SD, CDK7/cyclinH/ MAT1” value in experiment [10] (duplicate) came to 93±7%. In addition, in experiment [11] (duplicate), the “% of enzyme activity at 1μM of 36 ±SD, CDK2/cyclinA” value worked out at 37±1%. Further, the “% of enzyme activity at 1μM of 36 ±SD, MAPK1” value in experiment [12] (duplicate) came out at 100±1%.
